Experimental data taken from patent publication US8513232B2, “Substituted spirocyclic piperidine derivatives as histamine-3 (H3) receptor ligands” (Cephalon, Inc., priority 2008, dated 2013).
Where two headings read alike, the source gives them in different places.

Assays:
[1] = target: T1, human H3 receptor (Homo sapiens, UniProt Q9Y5N1); assay: Human H3 radioligand binding ([3H]-N-alpha-methylhistamine, SPA)
T1 construct: expressed in transfected cells
In short: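 Compounds (0.01 nM-30 μM) competed with approximately 1 nM [3H]-N-alpha-methylhistamine for human H3 receptor in membranes of stably transfected CHO cells, 10 μg protein per well, in Tris-HCl pH 7.4/MgCl2/BSA buffer for 4 h at room temperature. Bound radioligand measured by scintillation proximity; 10 μM clobenpropit gave non-specific binding.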

[2] = target: T2, rat histamine H3 receptor (Rattus norvegicus, UniProt Q9QYN8); assay: Rat H3 radioligand binding ([3H]-N-alpha-methylhistamine, SPA)
T2 construct: encoding the entire 445-amino-acid rat histamine H3 receptor; expressed in transfected cells; membrane preparation
In short: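 SPA-bead binding assay using [3H]-N-alpha-methylhistamine (approximately 1 nM final) with test compounds from 0.01 nM to 30 μM. Rat H3 receptor membranes came from stably transfected CHO-A3 cells; incubation ran 4 h at room temperature, in the dark, in Tris pH 7.4 buffer with MgCl2 and BSA. Clobenpropit (10 μM) gave non-specific binding.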

[3] = Table A, human H3 binding, read-out: Human Ki
[4] = Table A, rat H3 binding, read-out: Rat Ki
[5] = human H3 binding, Table D, read-out: Human H3 Ki
[6] = rat H3 binding, Table D, read-out: Rat H3 Ki
[7] = Human H3 binding, Table B, Examples 136-362, read-out: hum H3 binding Ki
[8] = Rat H3 binding, Table B, Examples 136-362, read-out: rat H3 binding Ki
[9] = Table C, human H3 binding, read-out: Human H3 Ki
[10] = Table C, rat H3 binding, read-out: Rat H3 Ki

T1 sequence (Q9Y5N1 whole entry): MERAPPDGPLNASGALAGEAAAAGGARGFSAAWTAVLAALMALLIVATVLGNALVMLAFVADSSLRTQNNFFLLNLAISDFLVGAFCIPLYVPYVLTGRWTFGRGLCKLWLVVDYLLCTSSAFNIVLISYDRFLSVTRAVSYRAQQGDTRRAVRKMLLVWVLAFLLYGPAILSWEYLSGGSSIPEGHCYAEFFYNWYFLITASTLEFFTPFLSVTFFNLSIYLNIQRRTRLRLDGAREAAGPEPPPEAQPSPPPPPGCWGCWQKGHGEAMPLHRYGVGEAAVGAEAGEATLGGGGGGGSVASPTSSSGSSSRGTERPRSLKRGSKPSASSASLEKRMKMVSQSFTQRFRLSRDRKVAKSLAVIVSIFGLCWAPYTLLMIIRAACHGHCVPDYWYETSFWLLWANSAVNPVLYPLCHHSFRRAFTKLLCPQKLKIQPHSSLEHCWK
T2 sequence (Q9QYN8 whole entry): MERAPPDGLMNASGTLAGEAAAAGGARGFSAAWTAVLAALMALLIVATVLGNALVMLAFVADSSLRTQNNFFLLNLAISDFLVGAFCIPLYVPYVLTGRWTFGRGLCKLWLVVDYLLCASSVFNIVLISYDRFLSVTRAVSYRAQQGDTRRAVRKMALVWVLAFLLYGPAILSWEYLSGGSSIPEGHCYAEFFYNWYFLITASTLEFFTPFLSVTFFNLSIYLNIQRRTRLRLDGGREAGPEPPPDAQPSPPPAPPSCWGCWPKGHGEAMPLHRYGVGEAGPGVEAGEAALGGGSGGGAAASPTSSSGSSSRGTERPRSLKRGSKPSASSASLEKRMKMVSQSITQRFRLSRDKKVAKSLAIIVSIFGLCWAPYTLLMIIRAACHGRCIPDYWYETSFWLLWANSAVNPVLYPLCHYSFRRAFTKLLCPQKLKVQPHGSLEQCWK

| melting point [°C] | Ki [1, 5] [µM] | Ki [2, 6] [µM] | SMILES | also measured |
| --- | --- | --- | --- | --- |
| 242 to 243 | – | – | O=C(Nc1nccs1)c1ccc(-c2ccc3c(c2)COC2(CCN(C4CCC4)CC2)O3)cc1 [Example 43] | Ki [1, 3]: < 0.2 µM; Ki [2, 4]: < 0.2 µM |
| 224 to 225 | < 0.2 | < 0.2 | Cc1cnc(-c2ccc3c(c2)COC2(CCN(C4CCC4)CC2)O3)c(C)n1 [Example 731] | – |
| 245 to 248 | 0.2 to 1 | > 1 | O=c1ccc(-c2ccc3c(c2)COC2(CCN(CC4CCOCC4)CC2)O3)c[nH]1 [Example 722] | – |
| 234 to 236 | – | – | CN1CC(COc2ccc3c(c2)CCC2(CCN(C4CCC4)CC2)O3)CC1=O (stereo not drawn) [Example 519] | Ki ([1]; read-out: Human H3 Ki): < 0.2 µM; Ki ([2]; read-out: Rat H3 kI): < 0.2 µM |
| 176.8 to 177.3 | – | – | O=C(c1ccc(-c2ccc3c(c2)OC2(CCN(C4CCC4)CC2)O3)cc1)N1CCCC1 [Example 90] | Ki [1, 3]: < 0.2 µM; Ki [2, 4]: 0.2 to 1 µM |
| 200 to 202 | < 0.2 | < 0.2 | O=c1[nH]cc(-c2ccc3c(c2)COC2(CCN(C4CCC4)CC2)O3)cc1F [Example 727] | – |
| 64.5 to 66 | – | – | c1cn2cc(-c3ccc4c(c3)COC3(CCN(C5CCC5)CC3)O4)ccc2n1 [Example 19] | Ki [1, 3]: < 0.2 µM; Ki [2, 4]: < 0.2 µM |
| 145 to 147 | – | – | COCCNC(=O)c1ccc(-c2ccc3c(c2)COC2(CCN(C4CCC4)CC2)O3)cc1 [Example 26] | Ki [1, 3]: < 0.2 µM; Ki [2, 4]: < 0.2 µM |
| 218 to 220 | < 0.2 | < 0.2 | CC(C)n1ccc(-c2ccc3c(c2)COC2(CCN(C4CCC4)CC2)O3)cc1=O [Example 758] | – |
| 141 to 143 | – | – | CNC(=O)c1cc(COc2ccc3c(c2)CCC2(CCN(C4CCC4)CC2)O3)ccn1 [Example 292] | Ki [1, 7]: < 0.2 µM; Ki [2, 8]: < 0.2 µM |
| 249 to 251 | – | – | CO[C@H]1CCN(C(=O)c2ccc(-c3ccc4c(c3)CCC3(CCN(C5CCC5)CC3)O4)cn2)C1 [Example 252] | Ki [1, 7]: < 0.2 µM; Ki [2, 8]: < 0.2 µM |
| 230 to 232 | < 0.2 | < 0.2 | O=c1ccc(-c2ccc3c(c2)COC2(CCN(C4CCOCC4)CC2)O3)c[nH]1 [Example 723] | – |
| 292 to 294 | – | – | O=C(N1CCOCC1)N1CCN(c2ccc3c(c2)CCC2(CCN(C4CCC4)CC2)O3)CC1 [Example 386] | Ki [1, 9]: < 0.2 µM; Ki [2, 10]: < 0.2 µM |
| 155 to 157 | < 0.2 | < 0.2 | COc1ccc2nc(C)n(-c3ccc4c(c3)COC3(CCN(C5CCC5)CC3)O4)c(=O)c2c1 [Example 794] | – |
| < 50 | – | – | COC1(c2ccc3c(c2)COC2(CCN(C4CCC4)CC2)O3)CCC1 [Example 559] | Ki ([1]; read-out: Human H3 Ki): < 0.2 µM; Ki ([2]; read-out: Rat H3 kI): < 0.2 µM |
| 226 to 229 | – | – | CCS(=O)(=O)N1CCC(Oc2ccc3c(c2)CCC2(CCN(C4CCC4)CC2)O3)CC1 [Example 441] | Ki [1, 9]: < 0.2 µM; Ki [2, 10]: < 0.2 µM |
| 198 to 200 | < 0.2 | < 0.2 | CNC(=O)c1cc(-c2ccc3c(c2)COC2(CCN(C4CCC4)CC2)O3)ccc1Cl [Example 584] | – |
| 86 to 88 | < 0.2 | < 0.2 | CNC(=O)CCc1ccc2c(c1)COC1(CCN(C3CCC3)CC1)O2 [Example 653] | – |
| 57 to 59 | – | – | CC(=O)N(Cc1cccnc1)c1ccc2c(c1)COC1(CCN(C3CCC3)CC1)O2 [Example 320] | Ki [1, 7]: < 0.2 µM; Ki [2, 8]: < 0.2 µM |
| 100 to 103 | < 0.2 | 0.2 to 1 | CNC(=O)c1cc(-c2ccc3c(c2)CCC2(CCN(C4CCC4)C2)O3)ccc1Cl (stereo not drawn) [Example 581] | – |
| 53 to 55 | – | – | CC(=O)N(c1ccc2c(c1)COC1(CCN(C3CCC3)CC1)O2)c1ccccn1 [Example 253] | Ki [1, 7]: < 0.2 µM; Ki [2, 8]: < 0.2 µM |
| 99.5 to 100.5 | – | – | O=C(c1ccc(-c2ccc3c(c2)COC2(CCN(C4CCC4)CC2)O3)cc1F)N1CC[C@H](O)C1 [Example 192] | Ki [1, 7]: < 0.2 µM; Ki [2, 8]: < 0.2 µM |
| 71 to 73 | < 0.2 | < 0.2 | O=C(CCc1ccc2c(c1)COC1(CCN(C3CCC3)CC1)O2)N1CCOCC1 [Example 660] | – |
| 59 to 61 | < 0.2 | < 0.2 | Cc1c(-c2ccc3c(c2)COC2(CCN(C4CCC4)CC2)O3)ccc(=O)n1C [Example 760] | – |

| SMILES | melting point [°C] | Ki [1, 5] [µM] | Ki [2, 6] [µM] | also measured |
| --- | --- | --- | --- | --- |
| O=C(Nc1ccc2c(c1)CCC1(CCN(C3CCC3)CC1)O2)c1cnnc2ccccc12 [Example 265] | 233 to 235 | – | – | Ki [1]: < 0.2 µM; Ki [2]: < 0.2 µM |
